From patent US20120156150A1, “Composition for Improving Skin Condition Comprising Extract from Black Tea as Active Ingredient” (Keimyung University Industry Academic Cooperation Foundation, priority 2010, published 2012)
Marks after values point to notes of the source that are not given here.

Experiments:
[1] = tested on: hyperpigmentation; conditions: Ortonne and Passeron 2005; cited from earlier work
[2] = tested on: gp100 protein; assay: Immunohistochemical HMB-45 staining (gp100); type: in vivo, brown guinea pig; conditions: week 4; 2% sample
Protocol: (§1) After dehydration, followed by washing with xylene and embedding in paraffin, 4 μm-thick samples were prepared. The sample was adhered on a coating slide and stained using the BenchMark XT automated immunostainer (Ventana Medical Systems, USA) after removing paraffin. […] Following reaction with S-100 and HMB-45 primary antibodies diluted to 1:100, the sample was washed with reaction buffer, reacted with biotin for 20 minutes, and then reacted with streptavidin for 25 minutes. After coloring with diaminobenzidine (DAB) using the Ventana detection kit), the sample was stained for observation using an optical microscope.

[3] = Electron donating ability (DPPH radical scavenging, Blois' method); conditions: 800 μg/mL
Protocol: DPPH radical scavenging effect was measuring according to the Blois' method (1958). […] After adding 1 mL of the test sample in a test tube, 4×10^−4 M DPPH (4 mL) was added. The resulting mixture was shaken vigorously, allowed to stand in warm water of 60° C. for 10 seconds, and absorbance was measured at 525 nm. BHT was used as the positive control group. Then, free radical scavenging activity of each solution was calculated as “% inhibition” according to the following equation: % inhibition=[1−(Asample/Ablank)]×100, wherein Ab1ank is the absorbance of the control group (excluding the test sample) and Asample is the absorbance of the test compound.

[4] = tested on: S-100 protein; assay: Immunohistochemical S-100 staining; type: in vivo, brown guinea pig; conditions: week 4; 2% sample
Protocol: as §1

[5] = biological target: tyrosinase (Homo sapiens, UniProt P14679); conditions: Briganti et al. 2003; cited from earlier work
tyrosinase, sequence (P14679 19-529, species assumed): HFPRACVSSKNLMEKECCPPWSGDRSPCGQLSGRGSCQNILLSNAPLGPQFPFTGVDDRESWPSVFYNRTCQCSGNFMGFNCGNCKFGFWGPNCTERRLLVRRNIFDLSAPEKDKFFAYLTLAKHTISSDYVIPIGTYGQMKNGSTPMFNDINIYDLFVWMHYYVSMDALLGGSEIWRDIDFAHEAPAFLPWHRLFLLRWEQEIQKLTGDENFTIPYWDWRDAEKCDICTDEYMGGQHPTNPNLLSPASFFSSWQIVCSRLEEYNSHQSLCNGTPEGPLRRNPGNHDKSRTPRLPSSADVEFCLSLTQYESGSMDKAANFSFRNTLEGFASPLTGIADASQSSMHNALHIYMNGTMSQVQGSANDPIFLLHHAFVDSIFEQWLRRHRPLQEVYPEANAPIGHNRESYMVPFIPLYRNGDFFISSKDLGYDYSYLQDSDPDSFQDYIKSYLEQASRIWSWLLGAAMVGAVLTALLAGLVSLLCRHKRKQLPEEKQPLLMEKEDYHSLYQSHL

[6] = tested on: melanin pigmentation in the epithelium; assay: Fontana-Masson's silver staining, melanin-pigmented area; type: in vivo, brown guinea pig; conditions: week 4; 2% sample
Protocol: In order to observe the morphological change of the skin tissue using an optical microscope, the extracted skin tissue was fixed in a 10% neutral formalin solution for 12 hours and washed with flowing water. After dehydrating in 70, 80, 95 and 100% ethanol followed by washing with xylene, the tissue was embedded in paraffin and 4 μm-thick samples were prepared using a microtome.
Paraffin was removed from the sample using xylene. After staining the sample for 60 minutes in silver nitrate solution at 56° C. according to the Masson's method (1928), followed by washing, color-toning 0.2% gold chloride solution and washing again, the sample was kept in 5% sodium thiosulfate solution for 5 minutes. Subsequently, after washing the sample once again, followed by counterstaining in nuclear fast red solution, dehydration in 95%, 95%, 100% and 100% alcohol and washing with xylene, the sample was put in Canada balsam for microscopic observation. The percentage of the melanin-pigmented area was calculated using an image analysis software.

[7] = tested on: UVB-induced hyperpigmentation; assay: Melanin index (mexameter), brown guinea pig; type: in vivo; conditions: 2% sample topical
Protocol: Three brown guinea pigs weighing 450-550 g were purchased from Oriental Yeast Co. Ltd. (OYC; Japan). The animals were accustomed to the test environment for 7 days. The animals were housed in individual cages under the environment of 22±1° C. and 50±5% relative humidity with 12-hour alternate dark/light cycles. Feed and water were given ad libitum.
UVB-induced hyperpigmentation was elicited on the back of the brown guinea pig according to the method of Choi et al. (2004). After anesthetizing the guinea pig with ketamine hydrochloride (100 mg/kg BW), 24 separate areas (φ 12 mm) on the skin of the back was exposed to UVB radiation (302-nm sunlamp). The areas were exposed to UVB of 500 mJ/cm^2 for 3 consecutive weeks, once a week. That is, a total of 1,500 mJ/cm^2 of UVB was radiated.
On day 10 after the final UVB radiation, 30 μL (1.06 mg/cm^2/day) of 2% HQ, EGCG, GT, WT or BT was topically applied for 4 weeks to the hyperpigmented areas (9 areas per each) using a micropipette, twice a day, and 4 days a week. Saline was used as control, and propylene glycol:ethanol:water (5:3:2) was used as vehicle control.
Before and after the topical application of the test sample, change in melanin pigmentation was measured 3 times in a non-invasive manner using a mexameter, once a week. The degree of pigmentation was analyzed by averaging the measured values.

[8] = Hematological analysis; type: in vivo, SKH-1 hairless mouse; conditions: RA 0.01%, GT/WT/BT 2%
Protocol: Blood sample was added to a blood collection tube containing the anticoagulant K2EDTA and mixed for more than 5 minutes. Then, concentration of erythrocytes, leukocytes, neutrophils, eosinophils, basophils, lymphocytes, monocytes, platelets and hemoglobin and hematocrit were measured using a hematological analyzer.

[9] = Organ weight (spleen, thymus); type: in vivo, SKH-1 hairless mouse
Protocol: After extracting the skin, a portion of the skin was fixed in 10% neutral-buffered formalin solution for histological analysis and the remainder was kept in a refrigerator (−80° C.) for analysis of MMPs. Thymus and spleen extracts were washed with saline and weighed on an electronic scale after removing water with filer paper.

[10] = tested on: UVB-irradiated skin; assay: Skin erythema index, SKH-1 hairless mouse; type: in vivo; conditions: for skin erythema index: RA 0.01%, GT/WT/BT 2%
Protocol: (§2) 7-week-old SKH-1 hairless mice was purchased from Charles River (Japan). The animals were accustomed to the test environment for 1 week. The animals were housed in individual cages under the environment of 22±1° C. and 50±5% relative humidity with 12-hour alternate dark/light cycles. Feed and water were given ad libitum. The animals were grouped into 7 groups as follows, with 7 mice per each:
(§3) The mouse was subjected to UVB radiation (302 nm sunlamp) on the back for […], 3 times a week. The radiation amount was 1 minimal erythemal dose (MED: 60 mJ/cm^2) on the 1st week, 2 MED (120 mJ/cm^2) on the 2nd week, 3 MED (180 mJ/cm^2) on the 3rd week, and 4 MED (240 mJ/cm^2) on the 4th to 12th weeks. The radiation with 4 MED was carried out once a week during the test period.
(§4) After inducing wrinkle formation, 200 μL of saline or the sample was applied for 4 weeks, 5 times a week (2%: 0.26 g/kg BW/day). RA was applied together with polyethylene glycol at a concentration of 0.01% for 4 weeks, 5 times a week, twice a day, with 200 μL per each.
(§5) Skin erythema index, water content and transepidermal water loss (TEWL) were measured in a non-invasive manner using a mexameter, a corneometer and a tewameter, once a week during the test period.

[11] = tested on: MMP-3; assay: RT-PCR, MMP-3 mRNA in skin tissue; type: in vivo, SKH-1 hairless mouse; conditions: RA 0.01%, GT/WT/BT 2%
Protocol: 50 mg of the sample from the mouse back skin kept at low temperature was homogenized with 1 mL of Trizol. The homogenized sample was incubated at room temperature for 5 minutes after adding 200 μL of chloroform, and centrifuged at 15,000 rpm and 4° C. for 10 minutes. After collecting and transferring the supernatant to a fresh tube and adding 500 μL of isopropyl alcohol, the sample was centrifuged at 4° C. and 15,000 rpm for 15 minutes. The resulting RNA pellet was washed with 1 mL of 70% ethanol and centrifuged at 4° C. and 15,000 rpm for 15 minutes. The RNA pellet finally obtained by removing the supernatant was diluted with diethylpyrocarbonate (DEPC) and quantitated with 1.8<optical density (OD; A260/A280)<2.0 using a white light/UV transilluminator. cDNA was synthesized from total RNA at a concentration of 0.1-1 μg/μL using the Cycle Script RT PreMix (dT20) kit. The cDNA synthesis was performed by 12 cycles of 1 minute at 30° C. and 4 minutes at 50° C. in 205 μL of DEPC, and the sample was heated at 95° C. for 5 minutes. Polymerase chain reaction (PCR) was carried out in 15.2 μL of sterilized water containing 2 μL of template and […] of primer using the Accupower™ PCR PreMix kit. The reaction was carried out for 35 cycles. […] DNA band density was calculated using the Kodak Gel Logic 100 image analysis system.

[12] = tested on: UVB-irradiated skin; assay: Skin water content (corneometer), SKH-1 hairless mouse; type: in vivo; conditions: for water content of the skin: RA 0.01%, GT/WT/BT 2%
Protocol: as §2, §3, §4, §5

[13] = tested on: UVB-induced wrinkles; assay: Measurement of wrinkles (skin replica, Visioline); type: in vivo, SKH-1 hairless mouse; conditions: RA 0.01%, GT/WT/BT 2%
Protocol: as §2, §3, §4
Skin replica was prepared from the back skin of the hairless mouse using the Silflo impression material (Flexico, England). The roughness of the skin was assessed using Visioline. Total wrinkle area (mm^2) was calculated.

[14] = Water and feed intake, feed efficiency and body weight; type: in vivo, SKH-1 hairless mouse
Protocol: Water and feed intake of the test animal was measured once a week. Body weight was measured between 09:00 and 10:00 in the morning, once a week during the test period.

[15] = tested on: UVB-irradiated skin; assay: Transepidermal water loss (TEWL), SKH-1 hairless mouse; type: in vivo; conditions: for TEWL: RA 0.01%, GT/WT/BT 2%
Protocol: as §2, §3, §4, §5

SMILES: Oc1ccc(O)cc1 [HQ, Hydroquinone]
- improves hyperpigmentation in % of cases [1]: 14-70%
- % of Melanin pigment (Table 5, gp 100 protein) [2]: 4.4 ± 0.8^c %
- Melanin pigment (area; Table 5, gp 100 protein) [2]: 469 ± 111 μm^2
- area of gp 100 protein expression, decrease by, as compared to the group C [2]: 68%
- Electron donating ability [3]: 93%
- % of S-100 Protein [4]: 4.3 ± 0.5^ab %
- S-100 Protein area [4]: 511 ± 89 μm^2
- area of S-100 protein expression, decrease by, as compared to the control groups [4]: 69%
- decreases tyrosinase activity up to [5]: up to 90%
- % of melanin pigment [6]: 9.5 ± 1.5^bc %
- Melanin pigment area [6]: 1163 ± 268 μm^2
- melanin pigmented area decreased by, as compared to the control group [6]: 53%
- melanin index ([7]; week 0): 724.8 ± 22.8^a AU
- melanin index ([7]; week 1): 702.9 ± 24.4^a* AU
- melanin index ([7]; week 2): 673.9 ± 26.1^c AU
- melanin index ([7]; week 3): 636.7 ± 25.8^b AU
- melanin index ([7]; week 4): 583.0 ± 28.0^b AU
- melanin index decreased by, as compared to the group C ([7]; week 4): 17%

SMILES: CC1=C(/C=C/C(C)=C/C=C/C(C)=C/C(=O)O)C(C)(C)CCC1 [RA, retinoic acid]
- Basophil [8]: 0.004 ± 0.04^a k/μl
- Eosinophil [8]: 0.050 ± 0.05^a k/μl
- HCT [8]: 43.442 ± 0.87^b %
- Hb [8]: 13.800 ± 0.18^b g/dl
- Lymphocyte [8]: 6.462 ± 0.34^c k/μl
- Monocyte [8]: 0.204 ± 0.06^b k/μl
- Neutrophil [8]: 2.340 ± 0.39^cd k/μl
- Platelet [8]: 517.80 ± 16.44^b k/μl
- RBC [8]: 4.274 ± 0.17^b M/μl
- WBC [8]: 9.114 ± 0.55^b k/μl
- Spleen absolute weight ([9]; RA 0.01%, GT/WT/BT 2%): 0.136 ± 0.015^a g
- Spleen relative weight ([9]; RA 0.01%, GT/WT/BT 2%): 0.475 ± 0.053^a g/100 g body weight
- Thymus absolute weight ([9]; RA 0.01%, GT/WT/BT 2%): 0.019 ± 0.005^ab g
- Thymus relative weight ([9]; RA 0.01%, GT/WT/BT 2%): 0.067 ± 0.01^ab g/100 g body weight
- organ weight relative to the normal group ([9]; p <0.05): significantly lower
- skin erythema index ([10]; week 1): 314.38 ± 17.33^c AU
- skin erythema index ([10]; week 2): 301.10 ± 16.60^b AU
- skin erythema index ([10]; week 3): 294.43 ± 13.14^b AU
- skin erythema index lower as compared to the control group ([10]; week 4): 32%
- skin erythema index ([10]; week 4): 282.64 ± 15.50^b AU
- expression level of MMP-3 mRNA lower as compared to the control group [11]: 77%
- water content of the skin ([12]; week 1): 57.99 ± 7.31^b AU
- water content of the skin ([12]; week 2): 65.70 ± 5.75^c AU
- water content of the skin ([12]; week 3): 71.42 ± 5.82^cd AU
- water content higher as compared to the control group ([12]; week 4): 207%
- water content of the skin ([12]; week 4): 88.59 ± 4.87^cd AU
- decreased wrinkle area as compared to the control group [13]: 49%
- Food efficiency ratio ([14]; (Body weight gain/Food intake) × 100): −0.94 ± 1.71^a %
- Body weight gain ([14]; RA 0.01%, GT/WT/BT 2%): −0.050 ± 0.09^a g/day
- Food intake ([14]; RA 0.01%, GT/WT/BT 2%): 5.36 ± 1.06^a g/day
- Water intake ([14]; RA 0.01%, GT/WT/BT 2%): 8.57 ± 1.75^b Ml/day
- water intake as compared to the control group ([14]; p <0.05): remarkably higher water intake
- TEWL ([15]; week 1): 24.16 ± 4.49^c** g/m^2/h
- TEWL ([15]; week 2): 18.33 ± 4.85^b** g/m^2/h
- TEWL ([15]; week 3): 18.76 ± 3.66^c g/m^2/h
- TEWL lower as compared to the control group ([15]; week 4): 58%
- TEWL ([15]; week 4): 16.90 ± 3.59^b g/m^2/h
